Activity calls are given as the source filed them. No cut-off for these calls is given here.
How the values were obtained:
[1] = molecular target: T1, Tyrosine-protein kinase BTK (Homo sapiens, UniProt Q06187); test: Inhibition of recombinant full length His-tagged human BTK expressed in baculovirus expression system using poly (4:1 Glu, Tyr) as substrate preincubated for 1 hr followed by substrate addition measured after 1 hr by ADP-glo assay
[2] = test system: Epidermal growth factor receptor (Homo sapiens), P00533 [T790M]; test: Inhibition of TEL-fused EGFR T790M mutant (unknown origin) expressed in mouse BA/F3 cells after 72 hrs by CellTiter-Glo assay; assay type: cell-based
Sequence of Epidermal growth factor receptor (Homo sapiens), P00533 [T790M] (P00533 whole entry T790M, the tested form may be a part): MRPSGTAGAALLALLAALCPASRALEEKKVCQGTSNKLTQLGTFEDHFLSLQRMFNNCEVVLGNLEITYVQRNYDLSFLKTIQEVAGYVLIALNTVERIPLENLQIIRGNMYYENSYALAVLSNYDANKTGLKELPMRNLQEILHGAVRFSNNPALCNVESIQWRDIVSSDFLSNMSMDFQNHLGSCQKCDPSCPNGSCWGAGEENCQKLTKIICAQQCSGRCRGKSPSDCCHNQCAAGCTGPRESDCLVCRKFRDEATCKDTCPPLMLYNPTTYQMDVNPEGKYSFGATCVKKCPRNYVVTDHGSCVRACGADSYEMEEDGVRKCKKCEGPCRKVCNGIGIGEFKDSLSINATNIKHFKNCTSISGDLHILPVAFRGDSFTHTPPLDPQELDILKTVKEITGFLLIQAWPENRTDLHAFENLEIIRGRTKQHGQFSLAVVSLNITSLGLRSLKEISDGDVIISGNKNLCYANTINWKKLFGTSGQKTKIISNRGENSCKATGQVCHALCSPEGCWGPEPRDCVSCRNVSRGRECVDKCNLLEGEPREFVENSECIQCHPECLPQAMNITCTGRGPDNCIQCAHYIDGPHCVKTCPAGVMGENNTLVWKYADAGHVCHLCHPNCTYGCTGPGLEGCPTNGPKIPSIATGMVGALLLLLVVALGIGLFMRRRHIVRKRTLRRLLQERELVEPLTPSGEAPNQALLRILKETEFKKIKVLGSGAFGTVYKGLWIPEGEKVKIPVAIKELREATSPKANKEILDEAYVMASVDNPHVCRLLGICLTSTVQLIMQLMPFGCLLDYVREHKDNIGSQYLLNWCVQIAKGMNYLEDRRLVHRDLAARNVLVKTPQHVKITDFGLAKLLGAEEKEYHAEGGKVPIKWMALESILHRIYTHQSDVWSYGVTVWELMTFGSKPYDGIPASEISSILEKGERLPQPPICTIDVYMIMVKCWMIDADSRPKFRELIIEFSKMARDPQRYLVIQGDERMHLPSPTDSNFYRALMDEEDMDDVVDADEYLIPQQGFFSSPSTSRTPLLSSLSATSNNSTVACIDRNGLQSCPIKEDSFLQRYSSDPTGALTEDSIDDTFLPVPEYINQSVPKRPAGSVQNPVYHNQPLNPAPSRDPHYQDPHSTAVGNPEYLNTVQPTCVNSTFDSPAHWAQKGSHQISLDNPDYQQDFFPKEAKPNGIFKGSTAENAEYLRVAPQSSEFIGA

[3] = molecular target: Tyrosine-protein kinase JAK1 (Homo sapiens) (UniProt P23458); test: Inhibition of TEL-fused JAK1 (unknown origin) expressed in mouse BA/F3 cells after 72 hrs by CellTiter-Glo assay; assay type: cell-based
Sequence of Tyrosine-protein kinase JAK1 (Homo sapiens) (P23458 whole entry, the tested form may be a part): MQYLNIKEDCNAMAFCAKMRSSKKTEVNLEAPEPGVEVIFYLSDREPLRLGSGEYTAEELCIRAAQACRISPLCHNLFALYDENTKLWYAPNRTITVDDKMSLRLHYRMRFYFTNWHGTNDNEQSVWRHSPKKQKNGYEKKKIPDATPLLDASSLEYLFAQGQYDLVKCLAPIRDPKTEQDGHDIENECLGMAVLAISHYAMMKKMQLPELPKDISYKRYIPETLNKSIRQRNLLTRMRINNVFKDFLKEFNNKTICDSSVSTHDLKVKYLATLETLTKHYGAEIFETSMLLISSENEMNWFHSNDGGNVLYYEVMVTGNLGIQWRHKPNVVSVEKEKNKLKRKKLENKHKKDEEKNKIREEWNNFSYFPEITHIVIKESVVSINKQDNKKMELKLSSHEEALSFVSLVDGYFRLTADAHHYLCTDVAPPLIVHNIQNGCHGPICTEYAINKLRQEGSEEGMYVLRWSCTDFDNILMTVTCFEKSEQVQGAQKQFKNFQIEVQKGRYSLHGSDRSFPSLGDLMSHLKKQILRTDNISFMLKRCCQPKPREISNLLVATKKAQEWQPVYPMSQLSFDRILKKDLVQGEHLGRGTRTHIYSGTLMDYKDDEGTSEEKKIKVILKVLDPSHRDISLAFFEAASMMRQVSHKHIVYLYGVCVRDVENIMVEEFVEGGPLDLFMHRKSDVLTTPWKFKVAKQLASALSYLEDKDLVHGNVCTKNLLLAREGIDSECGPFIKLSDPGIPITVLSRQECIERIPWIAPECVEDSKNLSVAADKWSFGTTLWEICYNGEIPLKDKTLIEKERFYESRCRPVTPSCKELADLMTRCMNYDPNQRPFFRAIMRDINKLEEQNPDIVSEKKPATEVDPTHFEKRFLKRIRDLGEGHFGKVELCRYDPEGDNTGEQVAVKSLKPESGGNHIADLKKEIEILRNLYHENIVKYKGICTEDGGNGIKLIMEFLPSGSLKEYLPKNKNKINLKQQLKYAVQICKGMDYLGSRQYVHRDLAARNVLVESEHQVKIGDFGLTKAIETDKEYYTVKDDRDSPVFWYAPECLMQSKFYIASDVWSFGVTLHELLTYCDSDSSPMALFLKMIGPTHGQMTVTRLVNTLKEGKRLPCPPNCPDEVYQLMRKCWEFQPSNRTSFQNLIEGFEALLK

HCT-116 = test: Antiproliferative activity against human HCT116 cells after 72 hrs by CellTiter-Glo assay; assay type: functional; settings: HCT-116, 72 h
A-431 = test: Antiproliferative activity against human A431 cells after 72 hrs by CellTiter-Glo assay; assay type: functional; settings: A-431, 72 h
NCI-H460 = test: Antiproliferative activity against human NCI-H460 cells after 72 hrs by CellTiter-Glo assay; assay type: functional; settings: NCI-H460, 72 h
[4] = Antiproliferative activity against human RV1 cells after 72 hrs by CellTiter-Glo assay; assay type: functional; settings: RV-1, 72 h
NALM-6 = test: Antiproliferative activity against human NALM6 cells after 72 hrs by CellTiter-Glo assay; assay type: functional; settings: NALM-6, 72 h
MOLM-14 = test: Antiproliferative activity against human MOLM14 cells after 72 hrs by CellTiter-Glo assay; assay type: functional; settings: MOLM-14, 72 h
SKM-1 = test: Antiproliferative activity against human SKM1 cells after 72 hrs by CellTiter-Glo assay; assay type: functional; settings: SKM-1, 72 h
NB-4 = test: Antiproliferative activity against human NB4 cells after 72 hrs by CellTiter-Glo assay; assay type: functional; settings: NB-4, 72 h
HL-60 = test: Antiproliferative activity against human HL60 cells after 72 hrs by CellTiter-Glo assay; assay type: functional; settings: HL-60, 72 h
CMK = test: Antiproliferative activity against human CMK cells after 72 hrs by CellTiter-Glo assay; assay type: functional
NOMO-1 = test: Antiproliferative activity against human NOMO1 cells after 72 hrs by CellTiter-Glo assay; assay type: functional; settings: NOMO-1, 72 h
OCI-AML-3 = test: Antiproliferative activity against human OCI-AML3 cells after 72 hrs by CellTiter-Glo assay; assay type: functional; settings: OCI-AML-3, 72 h
K562 = test: Antiproliferative activity against human K562 cells after 72 hrs by CellTiter-Glo assay; assay type: functional; settings: K562, 72 h
[5] = molecular target: Cytoplasmic tyrosine-protein kinase BMX (Homo sapiens, UniProt P51813); test: Inhibition of recombinant full length His-tagged human BMX expressed in baculovirus expression system using poly (4:1 Glu, Tyr) as substrate preincubated for 1 hr followed by substrate addition measured after 1 hr by ADP-glo assay
Sequence of Cytoplasmic tyrosine-protein kinase BMX (P51813 whole entry): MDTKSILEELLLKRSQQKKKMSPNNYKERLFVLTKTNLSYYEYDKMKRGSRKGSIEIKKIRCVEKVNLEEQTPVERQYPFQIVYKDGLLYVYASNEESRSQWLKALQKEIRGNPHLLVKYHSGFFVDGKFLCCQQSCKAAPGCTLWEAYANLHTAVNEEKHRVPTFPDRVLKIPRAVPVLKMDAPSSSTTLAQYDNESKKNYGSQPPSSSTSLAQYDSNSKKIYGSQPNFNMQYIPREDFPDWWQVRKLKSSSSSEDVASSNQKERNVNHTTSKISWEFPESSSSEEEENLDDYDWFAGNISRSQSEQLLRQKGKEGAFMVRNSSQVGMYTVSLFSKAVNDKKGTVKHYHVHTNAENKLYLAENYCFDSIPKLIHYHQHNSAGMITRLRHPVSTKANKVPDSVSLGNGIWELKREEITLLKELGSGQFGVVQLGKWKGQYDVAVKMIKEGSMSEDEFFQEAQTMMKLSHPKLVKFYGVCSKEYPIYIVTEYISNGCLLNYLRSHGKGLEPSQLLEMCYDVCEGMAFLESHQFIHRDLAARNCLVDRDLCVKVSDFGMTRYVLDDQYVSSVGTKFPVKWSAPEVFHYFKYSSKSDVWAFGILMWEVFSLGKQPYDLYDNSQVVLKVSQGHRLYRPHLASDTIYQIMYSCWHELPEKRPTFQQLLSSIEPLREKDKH

[6] = molecular target: Tyrosine-protein kinase Blk (Homo sapiens, UniProt P51451); test: Inhibition of recombinant full length His-tagged human BLK expressed in baculovirus expression system using poly (4:1 Glu, Tyr) as substrate preincubated for 1 hr followed by substrate addition measured after 1 hr by ADP-glo assay
Sequence of Tyrosine-protein kinase Blk (P51451 whole entry, the tested form may be a part): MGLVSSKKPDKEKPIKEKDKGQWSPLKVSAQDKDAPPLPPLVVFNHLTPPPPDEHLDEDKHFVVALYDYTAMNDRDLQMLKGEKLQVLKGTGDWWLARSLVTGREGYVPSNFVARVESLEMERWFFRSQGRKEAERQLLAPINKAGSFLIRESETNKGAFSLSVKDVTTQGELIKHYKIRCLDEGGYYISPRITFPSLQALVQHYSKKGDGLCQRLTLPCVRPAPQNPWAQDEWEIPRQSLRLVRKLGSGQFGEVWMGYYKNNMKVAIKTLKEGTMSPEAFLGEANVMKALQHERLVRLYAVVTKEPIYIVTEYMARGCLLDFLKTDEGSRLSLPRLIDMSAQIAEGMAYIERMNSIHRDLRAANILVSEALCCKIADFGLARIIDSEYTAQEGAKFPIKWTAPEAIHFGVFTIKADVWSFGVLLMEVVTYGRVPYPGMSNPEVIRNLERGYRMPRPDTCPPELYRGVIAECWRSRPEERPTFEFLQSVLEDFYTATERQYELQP

[7] = molecular target: T1, Tyrosine-protein kinase BTK; test: Irreversible binding affinity to recombinant full length His-tagged human BTK expressed in baculovirus expression system assessed as modification of Cys481 residue containing fragment at 100 uM after 1 hr by LC/MS-MS method
[8] = molecular target: T1, Tyrosine-protein kinase BTK; test: Irreversible inhibition of recombinant full length His-tagged human BTK expressed in baculovirus expression system using poly (4:1 Glu, Tyr) as substrate preincubated for 2 to 60 mins followed by substrate addition measured after 1 hr by ADP-glo assay
[9] = molecular target: T1, Tyrosine-protein kinase BTK; test: Irreversible inhibition of recombinant full length His-tagged human BTK expressed in baculovirus expression system using poly (4:1 Glu, Tyr) as substrate assessed as ratio of Kinact to Ki preincubated for 2 to 60 mins followed by substrate addition measured after 1 hr by ADP-glo assay
[10] = molecular target: T1, Tyrosine-protein kinase BTK; test: Inhibition of BTK autophosphorylation at Y223 in anti-IgM stimulated human MOLM13 cells after 4 hrs by chemiluminescence assay
[11] = molecular target: T1, Tyrosine-protein kinase BTK; test: Inhibition of BTK autophosphorylation at Y223 in anti-IgM stimulated human Ramos cells after 4 hrs by chemiluminescence assay; assay type: cell-based
[12] = molecular target: T1, Tyrosine-protein kinase BTK; test: Inhibition of BTK autophosphorylation at Y223 in anti-IgM stimulated human Pfeiffer cells after 4 hrs by chemiluminescence assay; assay type: cell-based
[13] = molecular target: T1, Tyrosine-protein kinase BTK; test: Inhibition of BTK transphosphorylation at Y551 in anti-IgM stimulated human Ramos cells at 100 to 1000 nM after 4 hrs by chemiluminescence assay; assay type: cell-based
[14] = molecular target: T1, Tyrosine-protein kinase BTK; test: Inhibition of BTK transphosphorylation at Y551 in anti-IgM stimulated human Pfeiffer cells at 100 to 1000 nM after 4 hrs by chemiluminescence assay; assay type: cell-based
[15] = molecular target: T1, Tyrosine-protein kinase BTK; test: Inhibition of BTK in anti-IgM stimulated human Ramos cells assessed as decrease in PLCgamma2 phosphorylation at Y1217 after 4 hrs by chemiluminescence assay; assay type: cell-based
[16] = molecular target: T1, Tyrosine-protein kinase BTK; test: Inhibition of BTK in anti-IgM stimulated human Pfeiffer cells assessed as decrease in PLCgamma2 phosphorylation at Y1217 at 100 to 1000 nM after 4 hrs by chemiluminescence assay; assay type: cell-based
[17] = molecular target: T1, Tyrosine-protein kinase BTK; test: Inhibition of BTK in anti-IgM stimulated human MOLM13 cells assessed as decrease in PLCgamma2 phosphorylation at Y1217 at 100 to 1000 nM after 4 hrs by chemiluminescence assay
Ramos [18] = test: Cell cycle arrest in human Ramos cells assessed as accumulation at G0/G1 phase up to 10 uM after 48 hrs by propidium iodide staining-based flow cytometric method; assay type: functional
Pfeiffer [19] = test: Cell cycle arrest in human Pfeiffer cells assessed as accumulation at G0/G1 phase up to 10 uM after 48 hrs by propidium iodide staining-based flow cytometric method; assay type: functional
MOLM-13 [20] = test: Cell cycle arrest in human MOLM13 cells assessed as accumulation at G0/G1 phase up to 10 uM after 48 hrs by propidium iodide staining-based flow cytometric method; assay type: functional
Ramos [21] = test: Induction of apoptosis in human Ramos cells assessed as PARP cleavage up to 10 uM after 48 hrs by immunoblot method; assay type: functional, cell-based
Ramos [22] = test: Induction of apoptosis in human Ramos cells assessed as caspase-3 cleavage up to 10 uM after 48 hrs by immunoblot method; assay type: functional, cell-based
MOLM-13 [23] = test: Induction of apoptosis in human MOLM13 cells assessed as PARP cleavage up to 10 uM after 48 hrs by immunoblot method; assay type: functional, cell-based
MOLM-13 [24] = test: Induction of apoptosis in human MOLM13 cells assessed as caspase-3 cleavage up to 10 uM after 48 hrs by immunoblot method; assay type: functional, cell-based
Pfeiffer [25] = test: Induction of apoptosis in human Pfeiffer cells assessed as PARP cleavage up to 10 uM after 48 hrs by immunoblot method; assay type: functional, cell-based
Pfeiffer [26] = test: Induction of apoptosis in human Pfeiffer cells assessed as caspase-3 cleavage up to 10 uM after 48 hrs by immunoblot method; assay type: functional, cell-based

T1 sequence (Q06187 whole entry, the tested form may be a part): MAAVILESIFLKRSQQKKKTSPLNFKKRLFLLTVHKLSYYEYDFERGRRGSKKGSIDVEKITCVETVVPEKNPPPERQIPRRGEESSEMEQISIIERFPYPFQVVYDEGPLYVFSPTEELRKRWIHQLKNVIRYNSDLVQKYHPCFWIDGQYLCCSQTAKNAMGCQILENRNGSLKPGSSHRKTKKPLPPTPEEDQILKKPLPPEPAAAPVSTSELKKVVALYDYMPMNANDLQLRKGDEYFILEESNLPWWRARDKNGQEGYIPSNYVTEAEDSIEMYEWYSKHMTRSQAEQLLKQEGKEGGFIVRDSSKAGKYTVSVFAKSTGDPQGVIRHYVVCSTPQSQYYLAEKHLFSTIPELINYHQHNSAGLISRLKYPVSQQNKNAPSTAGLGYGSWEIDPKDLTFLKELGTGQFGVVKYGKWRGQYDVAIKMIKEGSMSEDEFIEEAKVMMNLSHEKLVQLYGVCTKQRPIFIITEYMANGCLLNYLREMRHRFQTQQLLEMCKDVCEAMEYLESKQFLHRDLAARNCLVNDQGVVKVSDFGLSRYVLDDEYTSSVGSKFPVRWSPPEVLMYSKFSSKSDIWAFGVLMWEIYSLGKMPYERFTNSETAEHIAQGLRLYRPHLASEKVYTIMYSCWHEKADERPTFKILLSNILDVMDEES

CCC(=O)Nc1cc(-n2c(=O)ccc3cnc4ccc(-n5cccn5)cc4c32)ccc1C
IC50 [1]: 6.87 µM | GI50 [2]: > 10 µM | GI50 [3]: > 10 µM | GI50 (HCT-116): > 10 µM | GI50 (A-431): > 10 µM | GI50 (NCI-H460): > 10 µM | GI50 [4]: > 10 µM | GI50 (NALM-6): > 10 µM | GI50 (MOLM-14): > 10 µM | GI50 (SKM-1): > 10 µM | GI50 (NB-4): > 10 µM | GI50 (HL-60): > 10 µM | GI50 (CMK): > 10 µM | GI50 (NOMO-1): > 10 µM | GI50 (OCI-AML-3): > 10 µM | GI50 (K562): > 10 µM

C=CC(=O)Nc1cc(-n2c(=O)ccc3cnc4ccc(-n5cccn5)cc4c32)ccc1C
IC50 [5]: 0.083 µM | IC50 [6]: > 10 µM | Activity [7]: Active | Ki [8]: 0.097 µM | Kinact [8]: 0.07 min⁻¹ | Ratio [9]: 0.01 µM⁻¹ s⁻¹ | GI50 [2]: 0.918 µM | GI50 [3]: 2.67 µM | GI50 (HCT-116): > 10 µM | GI50 (A-431): 5.1 µM | GI50 (NCI-H460): > 10 µM | GI50 [4]: > 10 µM | GI50 (NALM-6): 1.17 µM | GI50 (MOLM-14): 1.5 µM | GI50 (SKM-1): 2.5 µM | GI50 (NB-4): 3.7 µM | GI50 (HL-60): 3.8 µM | GI50 (CMK): 4.3 µM | GI50 (NOMO-1): 4.9 µM | GI50 (OCI-AML-3): 5.6 µM | GI50 (K562): > 10 µM | EC50 [10]: < 0.1 µM | EC50 [11]: < 0.1 µM | EC50 [12]: < 3 µM | inhibition [13]: inactive | inhibition [14]: inactive | EC50 [15]: < 1 µM | inhibition [16]: inactive | inhibition [17]: inactive | Activity (Ramos [18]): Active | Activity (Pfeiffer [19]): Active | Activity (MOLM-13 [20]): Active | Activity (Ramos [21]): Active | Activity (Ramos [22]): Active | Activity (MOLM-13 [23]): Active | Activity (MOLM-13 [24]): Active | Activity (Pfeiffer [25]): Active | Activity (Pfeiffer [26]): Active

Reference: ChEMBL document CHEMBL4130348, “Structure-activity relationship investigation for benzonaphthyridinone derivatives as novel potent Bruton's tyrosine kinase (BTK) irreversible inhibitors” (Eur J Med Chem, 2017)
